The values that follow come from patent publication US20250228882A1, “ORALLY-BIOAVAILABLE NUCLEOSIDE ANALOGS” (Venatorx Pharmaceuticals, Inc., priority 2022, published 2025).

Read-outs that look alike come from different tables or passages of the source.

The nature of data set [1]: Bidirectional Caco-2 permeability assay. The class given is in vitro ADME. The settings on record: human. The essentials:
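Caco-2 monolayers (passage 39, 19-day culture, TEER >600 Ohms/cm^2) dosed A→B and B→A in duplicate, 90 min at 37 °C without shaking. Donor and receiver samples at 10 and 90 min quantified by LC/MS/MS. Papp (cm/s), efflux ratio and recovery calculated; ER >2 flags potential efflux substrate.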
For orientation: Caco-2 cells form a polarised layer with tight junctions and transporters.

The nature of data set [2]: Stability in human fasted-state simulated gastric fluid and fasted-state simulated intestinal fluid. It counts as physicochemical. The settings on record: timepoints 0-120 min. How it is done: The chemical stability of example compounds was determined using human fasted-state simulated gastric fluid, and fasted-state simulated intestinal fluid, prepared as follows.
• Weigh 1.0 g NaCl and dissolved it in 0.49 L water • Adjust pH value to 1.2, and adjust volume to 0.5 L in water • Filter the NaCl/HCl buffer through a 0.22 μm filter • Weigh 3.0 mg FaSSGF powder (Vendor: Biorelevant, catalog #FFF01), dissolve it in 50 mL NaCl/HCl buffer • Dissolve the FaSSGF powder in NaCl/HCl buffer and make up the volume to 50 mL • Store at 4° C. for future use.
• Weigh 0.695 g NaOH, 1.115 g maleic acid and 2.005 g NaCl, and dissolve in 0.49 L water • Adjusted the pH value to 6.8 and adjust volume to 0.5 L with water • Filter the maleic acid buffer through a 0.22 μm filter • Weigh 89.5 mg FaSSIF-V2 powder (Vendor: Biorelevant catalog #V2FAS01), dissolve in 50 mL maleic buffer • Dissolve the FaSSIF-V2 powder in maleic buffer and make up the volume to 50 mL • Store at 4° C. for future use.
Briefly, test compounds were prepared as 50 μM working solutions in DMSO, and 2 μL test compound working solution was added to 98 μL of each buffer respectively in six tubes (for six timepoints, 0, 5, 15, 30, 60, and 120 min) and gently mixed. At each corresponding timepoint, the reaction was stopped by addition of 300 μL of quenching solution (methanol solution of 5 ng/mL terfenadine and 10 ng/mL of tolbutamide). Each tube was vortexed for 1 min, centrifuged at 4,000 rpm at 4° C. for 15 min, then 200 μL of supernatant was removed. The half-life of each example compound was determined using LC-MS/MS analysis, using the internal standards present in the quenching solution.

Where [3] appears, read: fasted-state simulated gastric fluid (FaSSGF), human fasted-state simulated gastric fluid, pH 1.2, LC-MS/MS, read-out: FaSSGF t1/2.
Where [4] appears, read: human fasted-state simulated intestinal fluid (FaSSIF-V2), pH 6.8, LC-MS/MS, read-out: FaSSIF t1/2.

For `CC(C)(C)[C@@H](N)C(=O)OC[C@H]1O[C@@](C#N)(c2ccc3c(N)ncnn23)[C@H](O)[C@@H]1OC(=O)CC1CCCCC1` [Compound 37, ((2R,3S,4R,5R)-5-(4-aminopyrrolo[2,1-f][1,2,4]triazin-7-yl)-5-cyano-3-(2-cyclohexylacetoxy)-4-hydroxytetrahydrofuran-2-yl)methyl (R)-2-amino-3,3-dimethylbutanoate], in data set [1] (Caco-2), the efflux ratio at 90 min was determined as 2.95. The half-life at 1 µM in data set [2] (setting [3]) and in data set [2] (setting [4]) was greater than 6.21 h in each case.
For the compound `CCCC(=O)Nc1ncnn2c([C@]3(C#N)O[C@H](COC(=O)CC4CCCCC4)[C@@H](OC(=O)[C@@H](N)C(C)(C)C)[C@H]3O)ccc12` [Compound 1, (2R,3S,4R,5R)-5-(4-butyramidopyrrolo[2,1-f][1,2,4]triazin-7-yl)-5-cyano-2-((2-cyclohexylacetoxy)methyl)-4-hydroxytetrahydrofuran-3-yl (S)-2-amino-3,3-dimethylbutanoate], in data set [1] (Caco-2), the Papp A→B at 90 min was 6.8 ×10⁻⁶ cm/s, the apparent permeability from basolateral to apical (Papp B→A) at 90 min came out at 8.72 ×10⁻⁶ cm/s and the efflux ratio at 90 min turned out to be 1.28. The half-life at 1 µM in data set [2] (setting [3]) was 1.61 h. For the same compound, the half-life at 1 µM in data set [2] (setting [4]) is greater than 6.22 h.
In the case of `CCC(CC)C(=O)Nc1ncnn2c([C@]3(C#N)O[C@H](COC(=O)CC4CCCCC4)[C@@H](OC(=O)[C@@H](N)C(C)(C)C)[C@H]3O)ccc12` [Compound 2, (2R,3S,4R,5R)-5-cyano-2-((2-cyclohexylacetoxy)methyl)-5-(4-(2-ethylbutanamido)pyrrolo[2,1-f][1,2,4]triazin-7-yl)-4-hydroxytetrahydrofuran-3-yl (S)-2-amino-3,3-dimethylbutanoate], in data set [1] (Caco-2), the apical-to-basolateral permeability (Papp A→B) at 90 min worked out at 4.08 ×10⁻⁶ cm/s, the Papp B→A at 90 min is 6.13 ×10⁻⁶ cm/s and the efflux ratio at 90 min came out at 1.5. Besides, the half-life at 1 µM in data set [2] (setting [3]) is greater than 6.22 h. Moreover, the half-life at 1 µM in data set [2] (setting [4]) is greater than 6.22 h.
Turning to `COC(C)(C)C(=O)Nc1ncnn2c([C@]3(C#N)O[C@H](COC(=O)CC4CCCCC4)[C@@H](OC(=O)[C@@H](N)C(C)(C)C)[C@H]3O)ccc12` [Compound 3, (2R,3S,4R,5R)-5-cyano-2-((2-cyclohexylacetoxy)methyl)-4-hydroxy-5-(4-(2-methoxy-2-methylpropanamido)pyrrolo[2,1-f][1,2,4]triazin-7-yl)tetrahydrofuran-3-yl (S)-2-amino-3,3-dimethylbutanoate], in data set [1] (Caco-2), the apical-to-basolateral permeability (Papp A→B) at 90 min worked out at 8.49 ×10⁻⁶ cm/s, the basolateral-to-apical permeability (Papp B→A) at 90 min stood at 9.3 ×10⁻⁶ cm/s and the efflux ratio at 90 min turned out to be 1.1. Moreover, the half-life at 1 µM in data set [2] (setting [3]) is 0.347 h. The half-life at 1 µM in data set [2] (setting [4]) is greater than 6.22 h.
In the case of `CCC(CC)C(=O)Nc1ncnn2c([C@]3(C#N)O[C@H](COC(=O)CC4CCCC4)[C@@H](OC(=O)[C@H](N)C(C)(C)C)[C@H]3O)ccc12` [Compound 76, (2R,3S,4R,5R)-5-cyano-2-((2-cyclopentylacetoxy)methyl)-5-(4-(2-ethylbutanamido)pyrrolo[2,1-f][1,2,4]triazin-7-yl)-4-hydroxytetrahydrofuran-3-yl (R)-2-amino-3,3-dimethylbutanoate], in data set [1] (Caco-2), the Papp A→B at 90 min was 2.5 ×10⁻⁶ cm/s, the apparent permeability from basolateral to apical (Papp B→A) at 90 min was determined as 2.4 ×10⁻⁶ cm/s and the efflux ratio at 90 min amounted to 1.
For `CC(=O)Nc1ncnn2c([C@]3(C#N)O[C@H](COC(=O)[C@@H](N)C(C)(C)C)[C@@H](OC(=O)CC4CCCCC4)[C@H]3O)ccc12` [Compound 33, ((2R,3S,4R,5R)-5-(4-acetamidopyrrolo[2,1-f][1,2,4]triazin-7-yl)-5-cyano-3-(2-cyclohexylacetoxy)-4-hydroxytetrahydrofuran-2-yl)methyl (S)-2-amino-3,3-dimethylbutanoate], in data set [1] (Caco-2), the Papp A→B at 90 min worked out at 24.4 ×10⁻⁶ cm/s.
`CCCCC(=O)Nc1ncnn2c([C@]3(C#N)O[C@H](COC(=O)CC4CCCCCC4)[C@@H](OC(=O)[C@@H](N)C(C)(C)C)[C@H]3O)ccc12` [Compound 61, (2R,3S,4R,5R)-5-cyano-2-((2-cycloheptylacetoxy)methyl)-4-hydroxy-5-(4-pentanamidopyrrolo[2,1-f][1,2,4]triazin-7-yl)tetrahydrofuran-3-yl (S)-2-amino-3,3-dimethylbutanoate]: in data set [1] (Caco-2), the Papp A→B at 90 min is 1.07 ×10⁻⁶ cm/s, the apparent permeability from basolateral to apical (Papp B→A) at 90 min was determined as 0.65 ×10⁻⁶ cm/s and the efflux ratio at 90 min was found to be 0.6.
Consider `CC[C@H](C)C(=O)Nc1ncnn2c([C@]3(C#N)O[C@H](COC(=O)Cc4ccccc4)[C@@H](OC(=O)[C@@H](N)C(C)(C)C)[C@H]3O)ccc12` [Compound 10, (2R,3S,4R,5R)-5-cyano-4-hydroxy-5-(4-((S)-2-methylbutanamido)pyrrolo[2,1-f][1,2,4]triazin-7-yl)-2-((2-phenylacetoxy)methyl)tetrahydrofuran-3-yl (S)-2-amino-3,3-dimethylbutanoate], for which the Papp A→B at 90 min in data set [1] (Caco-2 monolayer, apical to basolateral, 90-minute incubation, read-out: Papp, A-B) amounted to 0.59 ×10⁻⁶ cm/s. Also, the apparent permeability from basolateral to apical (Papp B→A) at 90 min in data set [1] (Caco-2 monolayer, basolateral to apical, 90-minute incubation, read-out: Papp, B-A) came out at 0.1 ×10⁻⁶ cm/s. Besides, in data set [1] (Caco-2 monolayer, ER>2 indicates potential efflux substrate, read-out: ER (efflux ratio)), the efflux ratio at 90 min amounted to 0.17.
Turning to `CCOC(C)(C)C(=O)Nc1ncnn2c([C@]3(C#N)O[C@H](COC(=O)CC4CCCC4)[C@@H](OC(=O)[C@@H](N)C(C)(C)C)[C@H]3O)ccc12` [Compound 66, (2R,3S,4R,5R)-5-cyano-2-((2-cyclopentylacetoxy)methyl)-5-(4-(2-ethoxy-2-methylpropanamido)pyrrolo[2,1-f][1,2,4]triazin-7-yl)-4-hydroxytetrahydrofuran-3-yl (S)-2-amino-3,3-dimethylbutanoate], in data set [1] (Caco-2), the Papp A→B at 90 min was determined as 5.1 ×10⁻⁶ cm/s, the basolateral-to-apical permeability (Papp B→A) at 90 min was 5.79 ×10⁻⁶ cm/s and the efflux ratio at 90 min was 1.13.
On to `CCCCCC(=O)Nc1ncnn2c([C@]3(C#N)O[C@H](COC(=O)CC4CCCC4)[C@@H](OC(=O)[C@@H](N)C(C)(C)C)[C@H]3O)ccc12` [Compound 55, (2R,3S,4R,5R)-5-cyano-2-((2-cyclopentylacetoxy)methyl)-5-(4-hexanamidopyrrolo[2,1-f][1,2,4]triazin-7-yl)-4-hydroxytetrahydrofuran-3-yl (S)-2-amino-3,3-dimethylbutanoate], for which, in data set [1] (Caco-2), the apical-to-basolateral permeability (Papp A→B) at 90 min was 2.74 ×10⁻⁶ cm/s, the Papp B→A at 90 min stood at 3.63 ×10⁻⁶ cm/s and the efflux ratio at 90 min came out at 1.33.
`CCOC(C)(C)C(=O)Nc1ncnn2c([C@]3(C#N)O[C@H](COC(=O)CC4CCCCCC4)[C@@H](OC(=O)[C@@H](N)C(C)(C)C)[C@H]3O)ccc12` [Compound 67, (2R,3S,4R,5R)-5-cyano-2-((2-cycloheptylacetoxy)methyl)-5-(4-(2-ethoxy-2-methylpropanamido)pyrrolo[2,1-f][1,2,4]triazin-7-yl)-4-hydroxytetrahydrofuran-3-yl (S)-2-amino-3,3-dimethylbutanoate]: in data set [1] (Caco-2), the apparent permeability from apical to basolateral (Papp A→B) at 90 min came out at 4.78 ×10⁻⁶ cm/s, the Papp B→A at 90 min was 2.54 ×10⁻⁶ cm/s and the efflux ratio at 90 min was 0.53.

What is called Papp A→B is how fast a substance crosses the layer from the apical side. Broadly, the Papp B→A is the apparent permeability from the basolateral to the apical side of a cell layer.
